We go through three compounds from US12415797B2, “Heterocyclic compound as CDK-HDAC double-channel inhibitor” (Hangzhou Innogate Pharma Co., Ltd., priority 2018, dated 2025).

Format in all cases: biochemical
In one test the target is CDK6/cycD3 (Homo sapiens (Human), UniProt Q00534). The experiment in a line: CDK6/cycD3 kinase Mobility Shift Assay. To be noted: CDK6/cycD3 15 nM, ATP Km 800 μM, 60 min, 28° C. As for the experimental part: (§1) In vitro enzymatic activity of the CDK isoforms CDK2/CycA2, CDK4/CycD3 and CDK6/cycD3 were measured using Mobility Shift Assay that monitors phosphorylation ratio of FAM labelled peptide (Peptide 18 for CDK2/CycA2, Peptide 8 for CDK4/CycD3). CDK2/CycA2 and CDK6/CycD3 were assayed under buffer conditions in the presence of 50 mM HEPES (pH 7.5), 10 mM MgCl2, 0.0015% Brij-35 and 2 mM dithiothreitol; CDK4/CycD3 with buffer condition of 20 mM HEPES (pH 7.5), 10 mM MgCl2, 0.01% Triton X-100 and 2 mM dithiothreitol. Prepare compounds to 50× of the final desired highest inhibitor concentration by 100% DMSO and serial dilution in 3-fold for total of 10 concentrations. For each isoform, dosage of enzyme and substrate are CDK2/CycA2 12 nM, ATP Km 39 μM; CDK4/CycD3 10 nM, ATP Km […]; CDK6/cycD3 15 nM, ATP Km 800 μM. After assay for 60 min, 180 min, 60 min respectively at 28° C., reactions were terminated with stop solution (50 mM EDTA, 0.015% Brij-35, 0.2% Coating Reagent #3 and 100 mM HEPES (pH 7.5)). Collect conversion on Caliper EZ Reader. IC50 values were calculated by fitting the dose-response curves with Xlfit excel add-in version 4.3.1.
Sequence of CDK6/cycD3 (Q00534 whole entry, species assumed, canonical isoform): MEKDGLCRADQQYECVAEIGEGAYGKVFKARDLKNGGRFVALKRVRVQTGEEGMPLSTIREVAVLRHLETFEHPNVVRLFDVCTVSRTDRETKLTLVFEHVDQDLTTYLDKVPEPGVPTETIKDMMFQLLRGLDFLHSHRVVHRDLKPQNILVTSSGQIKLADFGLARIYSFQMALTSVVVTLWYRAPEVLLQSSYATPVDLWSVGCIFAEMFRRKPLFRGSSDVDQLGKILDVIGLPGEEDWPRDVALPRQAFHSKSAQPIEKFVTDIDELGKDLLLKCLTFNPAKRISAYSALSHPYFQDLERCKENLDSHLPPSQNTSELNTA
Sequence of CDK6/cycD3 (P30281 whole entry partner, species assumed, canonical isoform): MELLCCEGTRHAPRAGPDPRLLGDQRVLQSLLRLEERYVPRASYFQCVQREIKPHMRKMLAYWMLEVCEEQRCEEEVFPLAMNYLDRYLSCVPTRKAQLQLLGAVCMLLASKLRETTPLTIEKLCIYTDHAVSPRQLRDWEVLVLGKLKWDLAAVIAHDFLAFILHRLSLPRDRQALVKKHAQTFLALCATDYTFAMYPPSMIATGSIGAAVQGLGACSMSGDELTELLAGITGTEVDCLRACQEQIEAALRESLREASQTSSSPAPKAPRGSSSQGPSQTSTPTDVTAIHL

A further test concerns the target HDAC-1 (Homo sapiens (Human), UniProt Q13547). The experiment in a line: HDAC-1 fluorogenic deacetylase assay (Ac-peptide-AMC). The conditions noted are these: recombinant, full-length protein, Ac-peptide-AMC substrate; read-out: HDAC1 (IC50). Here is the method: (§2) The inhibitory effect of compounds on HDAC-1 and HDAC-6 function was determined in vitro using an optimized homogenous assay performed in 384-well plate format. In this assay, the recombinant, full-length HDAC-1, HDAC-2 or HDAC-6 protein (BPS Biosciences) was incubated with Ac-peptide-AMC with concentrations in the Km plot. Reactions were performed in Tris-based assay buffer and were followed for fluorogenic release of 7-amino-4-methylcoumarin from substrate upon deacetylase and trypsin enzymatic activity. Fluorescence measurements were obtained using a multilabel plate reader (Synergy MX with excitation at 355 nm and emission at 460 nm). Data were analyzed on a plate-by-plate basis for the linear range of fluorescence over time. Fit the data in GraphPad Prism V5.0 software to obtain IC50 values using equation (Y=Bottom+(Top-Bottom)/(1+10^((Log IC50−X)*Hill Slope), Y is % inhibition and X is compound concentration).

A further test concerns the target CDK2/CycA2 (Homo sapiens (Human), UniProt P24941). The experiment in a line: CDK2/CycA2 kinase Mobility Shift Assay. To be noted: CDK2/CycA2 12 nM, ATP Km 39 μM, 60 min, 28° C. Here is the method: as §1
The next test concerns the target HDAC-6 (Homo sapiens (Human), UniProt Q9UBN7). The test is described as follows: HDAC-6 fluorogenic deacetylase assay (Ac-peptide-AMC). To be noted: recombinant, full-length protein, Ac-peptide-AMC substrate; read-out: HDAC6 (IC5). As for the experimental part:
as §2

In another test the target is CDK4/CycD3 (Homo sapiens (Human), UniProt P11802). The experiment in a line: CDK4/CycD3 kinase Mobility Shift Assay. The conditions noted are these: CDK4/CycD3 10 nM, ATP Km 221 μM, 180 min, 28° C. As for the experimental part:
as §1

Sequence of HDAC-6 (Q9UBN7 whole entry): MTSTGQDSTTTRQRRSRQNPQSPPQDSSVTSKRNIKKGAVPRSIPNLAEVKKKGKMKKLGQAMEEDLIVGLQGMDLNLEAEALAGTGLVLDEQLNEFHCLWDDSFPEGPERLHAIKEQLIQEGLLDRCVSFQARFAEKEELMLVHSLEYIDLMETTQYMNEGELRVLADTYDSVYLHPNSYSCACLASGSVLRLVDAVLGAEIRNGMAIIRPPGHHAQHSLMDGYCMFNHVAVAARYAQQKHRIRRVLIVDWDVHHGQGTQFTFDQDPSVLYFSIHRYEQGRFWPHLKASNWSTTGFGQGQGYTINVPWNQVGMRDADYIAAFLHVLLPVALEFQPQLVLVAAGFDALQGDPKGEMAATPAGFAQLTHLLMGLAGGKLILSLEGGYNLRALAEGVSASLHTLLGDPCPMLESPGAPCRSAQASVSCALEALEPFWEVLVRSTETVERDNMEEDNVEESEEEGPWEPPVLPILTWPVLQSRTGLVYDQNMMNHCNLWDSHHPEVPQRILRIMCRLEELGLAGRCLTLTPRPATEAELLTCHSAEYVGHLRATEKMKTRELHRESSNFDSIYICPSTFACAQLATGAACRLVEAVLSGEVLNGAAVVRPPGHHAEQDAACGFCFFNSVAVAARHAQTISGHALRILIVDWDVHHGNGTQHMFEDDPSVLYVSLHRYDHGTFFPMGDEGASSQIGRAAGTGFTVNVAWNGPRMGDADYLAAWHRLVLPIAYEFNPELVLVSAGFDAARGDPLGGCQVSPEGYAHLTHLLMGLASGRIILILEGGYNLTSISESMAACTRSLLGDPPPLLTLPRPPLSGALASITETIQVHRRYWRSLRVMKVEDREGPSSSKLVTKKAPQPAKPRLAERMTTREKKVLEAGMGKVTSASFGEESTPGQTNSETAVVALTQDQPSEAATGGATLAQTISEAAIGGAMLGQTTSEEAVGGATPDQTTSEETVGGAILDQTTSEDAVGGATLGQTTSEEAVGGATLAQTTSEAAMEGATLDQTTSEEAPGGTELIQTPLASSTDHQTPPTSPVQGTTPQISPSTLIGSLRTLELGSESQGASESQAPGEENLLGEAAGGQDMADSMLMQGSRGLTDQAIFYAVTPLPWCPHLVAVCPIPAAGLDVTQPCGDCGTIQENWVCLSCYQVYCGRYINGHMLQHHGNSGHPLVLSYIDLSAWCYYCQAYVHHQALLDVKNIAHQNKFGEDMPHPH
Sequence of HDAC-1 (Q13547 whole entry): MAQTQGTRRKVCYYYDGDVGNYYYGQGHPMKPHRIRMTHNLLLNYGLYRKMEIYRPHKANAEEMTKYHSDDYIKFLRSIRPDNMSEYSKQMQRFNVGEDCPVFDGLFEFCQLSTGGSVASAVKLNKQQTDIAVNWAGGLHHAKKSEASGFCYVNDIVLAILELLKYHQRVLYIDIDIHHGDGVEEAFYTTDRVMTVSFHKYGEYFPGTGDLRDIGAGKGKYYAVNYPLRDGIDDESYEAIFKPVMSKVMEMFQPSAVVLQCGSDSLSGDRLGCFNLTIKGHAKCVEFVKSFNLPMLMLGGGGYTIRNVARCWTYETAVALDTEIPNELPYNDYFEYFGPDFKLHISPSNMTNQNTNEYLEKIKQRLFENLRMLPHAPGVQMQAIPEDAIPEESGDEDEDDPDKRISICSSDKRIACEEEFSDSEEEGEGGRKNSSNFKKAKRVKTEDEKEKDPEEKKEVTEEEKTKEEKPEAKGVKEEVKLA
Sequence of CDK4/CycD3 (P11802 whole entry, species assumed): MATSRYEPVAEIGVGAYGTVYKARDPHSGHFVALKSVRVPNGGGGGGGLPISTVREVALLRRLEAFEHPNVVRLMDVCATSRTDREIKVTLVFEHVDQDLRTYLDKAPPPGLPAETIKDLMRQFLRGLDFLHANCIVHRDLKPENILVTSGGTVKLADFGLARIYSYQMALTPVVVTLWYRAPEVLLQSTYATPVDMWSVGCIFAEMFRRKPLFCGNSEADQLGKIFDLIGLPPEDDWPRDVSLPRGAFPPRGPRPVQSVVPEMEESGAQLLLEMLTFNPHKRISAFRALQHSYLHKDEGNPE
Sequence of CDK4/CycD3 (P30281 whole entry partner, species assumed): as the sequence (P30281 whole entry partner, species assumed, canonical isoform) above

For the compound `Cc1nc2c(F)cc(-c3nc(Nc4ccc(N(C)CCCCCCC(=O)NO)cn4)ncc3F)cc2n1C(C)C` [Compound 3, 7-((6-((5-fluoro-4-(4-fluoro-1-isopropyl-2-methyl-1H-benzo[d]imidazol-6-yl)pyrimidin-2-yl)amino)pyridin-3-yl)(methyl)amino)-N-hydroxyheptanamide], the IC50 at CDK6/cycD3 is 10 to 100 nM; on HDAC-1, 10 to 100 nM; on CDK2/CycA2, 10 to 100 nM; at HDAC-6 it was 10 to 100 nM; on CDK4/CycD3 it was less than 10 nM.
`Cc1nc2c(F)cc(-c3nc(Nc4ccc(N(C)Cc5ccc(/C=C/C(=O)NO)cc5)cn4)ncc3F)cc2n1C(C)C` [Compound 7, (E)-3-(4-(((6-((5-fluoro-4-(4-fluoro-1-isopropyl-2-methyl-1H-benzo[d]imidazol-6-yl)pyrimidin-2-yl)amino)pyridin-3-yl)(methyl)amino)methyl)phenyl)-N-hydroxyacrylamide]: the IC50 on CDK6/cycD3 lay in the range of 500 to 1000 nM; on HDAC-1, 100 to 500 nM; on CDK2/CycA2 it was 100 to 500 nM; at HDAC-6, 10 to 100 nM; on CDK4/CycD3 it was 10 to 100 nM.
In the case of `Cc1nc2c(F)cc(-c3nc(Nc4cc(C(=O)NO)ccn4)ncc3F)cc2n1C(C)C` [Compound 12, 2-((5-fluoro-4-(4-fluoro-1-isopropyl-2-methyl-1H-benzo[d]imidazol-6-yl)pyrimidin-2-yl)amino)-N-hydroxyisonicotinamide], the IC50 at CDK6/cycD3 is not below 1000 nM; at HDAC-1, 100 to 500 nM; on CDK2/CycA2, 10 to 100 nM; at HDAC-6, 10 to 100 nM; at CDK4/CycD3 it was 10 to 100 nM.
